Assay results taken from patent EP4670722A1, “PROPHYLACTIC OR AMELIORATING AGENT FOR CELL AGING” (Kyowa Pharma Chemical Co., Ltd., priority 2023, dated 2024).

How the values were obtained:
Type in all cases: cell-based
[1] = test system: Human normal epidermal keratinocytes (HaCaT); assay: Cell proliferation rate (MTT) of normal epidermal keratinocytes; details: 50 µg/mL to 200 µg/mL in medium, 2 days, activity increased as content increased, Fig. 1
Method: Human normal epidermal keratinocytes (HaCaT) were cultured using DMEM containing 10% FBS. The cultured cells were collected by trypsin treatment. The collected cells were seeded in a 96-well microplate at a concentration of 5.0 x 10^3 cells/well and cultured overnight. Thereafter, the cells were cultured for 2 days at 37°C in a medium for epidermal keratinocyte proliferation (FBS-free) to which a test sample (sucrose or 2'-fucosyllactose) was added to a concentration of 50 µg/mL, 100 µg/mL, or 200 µg/mL. The medium was replaced with FBS-free DMEM medium, then 10 µL/well of 5 mg/mL 3-[4,5-dimethylthiazol-2-yl]-2,5-diphenyltetrazolium bromide (MTT) was added, and the cells were cultured at 37°C for 3 hours. After completion of culture, formazan produced in the cells was extracted with 100 µL of dimethyl sulfoxide (DMSO). After extraction, the absorbance of formazan (As, 492 nm) was measured with a microplate reader. The reference wavelength was set to 620 nm.
Human normal epidermal keratinocytes were cultured and the absorbance of formazan was measured in the same manner as in Example 1-1, except that no test sample was added. The obtained absorbance was designated as Ab, and the cell proliferation rate represented by the following formula (1) was determined. Cell proliferation rate(%) = 100 x As/AB [formula]

[2] = test system: Human normal dermal fibroblasts (NB1RGB) with a PDL of 30 or less; assay: Cell proliferation rate (MTT) of normal dermal fibroblasts; details: 50 µg/mL to 200 µg/mL, 2 days, activity increased as content increased, Fig. 2
Method: (§1) Human normal dermal fibroblasts (NB1RGB) with a PDL of 30 or less and human senescent dermal fibroblasts (NB1RGB) with a PDL of 50 or more were each cultured using DMEM containing 10% FBS. The cultured cells were collected by trypsin treatment. The collected cells were seeded in a 96-well microplate at a concentration of 5.0 x 10^3 cells/well and cultured overnight. Thereafter, the cells were cultured for 2 days at 37°C in a medium for fibroblast proliferation (FBS-free) to which a test sample (sucrose or 2'-fucosyllactose) was added to a concentration of 50 µg/mL, 100 µg/mL,or 200 µg/mL. The medium was replaced with FBS-free DMEM medium, then 10 µL/well of 5 mg/mL 3-[4,5-dimethylthiazol-2-yl]-2,5-diphenyltetrazolium bromide (MTT) was added, and the cells were cultured at 37°C for 3 hours. […] After extraction, the absorbance of formazan (As, 492 nm) was measured with a microplate reader. […]
(§2) Human normal dermal fibroblasts with a PDL of 30 or less and human senescent fibroblasts with a PDL of 50 or more were each cultured and the absorbance of formazan was measured in the same manner as in Example 2-1, except that no test sample was added. The obtained absorbance was designated as Ab, and the cell proliferation rate represented by the above formula (1) was determined for each case of PDL of 30 or less and PDL of 50 or more.

[3] = test system: human senescent dermal fibroblasts (NB1RGB) with a PDL of 50 or more; assay: Cell proliferation rate (MTT) of senescent dermal fibroblasts; details: 50 µg/mL to 200 µg/mL, 2 days, suppression increased as content increased, Fig. 3
Method: as §1, §2

[4] = test system: Human normal dermal fibroblasts (NB1RGB) with a PDL of 30 or less; assay: Cell viability (Cell Counting Kit-8) of tunicamycin-treated dermal fibroblasts; details: NB1RGB PDL of 30 or less, tunicamycin 0.3 µg/mL, 50 µg/mL to 200 µg/mL, 24 hours; effect increased as content increased; Fig. 6
Method: Human normal dermal fibroblasts (NB1RGB) with a PDL of 30 or less were cultured using DMEM containing 10% FBS. The cultured cells were collected by trypsin treatment. The collected cells were seeded in a 96-well plate, and when they reached 100% confluence, tunicamycin was added at 0.3 µg/mL, and the cells were cultured for 24 hours. A group was also prepared in which FBS-free DMEM medium containing a test sample (2'-fucosyllactose) at 50 µg/mL, 100 µg/mL, or 200 µg/mL was added simultaneously with tunicamycin, and cultured for 24 hours. After completion of culture, the viability of human normal dermal fibroblasts was evaluated using Cell Counting Kit-8 (manufactured by Dojindo Laboratories). The measurement wavelength (As) was set to 450 nm, and the reference wavelength was set to 620 nm.
Human normal dermal fibroblasts with a PDL of 30 or less were cultured and the absorbance at a measurement wavelength of 450 nm was measured in the same manner as in Example 5-1, except that tunicamycin and the test sample were not added. The obtained absorbance was designated as Ab, and the cell viability represented by the above formula (1) was determined.

[5] = test system: GLS1; assay: GLS1 expression analysis (ELISA) in KKLS; details: human gastric undifferentiated carcinoma cells (KKLS), at least 200 µg/mL or more, 24 hours; effect increased from 200 to 1000 µg/mL; Fig. 12
Method: Human gastric undifferentiated carcinoma cells (KKLS) were cultured in RPMI 1640 (manufactured by Nissui Pharmaceutical Co., Ltd.) containing 10% FBS. The cultured cells were collected by trypsin treatment. The collected cells were seeded in a 6-well plate, and when they reached 100% confluence, RPMI 1640 containing the test sample (2'-FL and lactose) at 50 µg/mL, 200 µg/mL, or 1000 µg/mL was added, and cultured for 24 hours in a 37°C, 5% CO2 incubator. The culture supernatant was removed, the cells were washed twice with PBS, and 0.20 mL of RIPA buffer was added to extract total protein. Protein in each protein extract was quantified by the Bradford assay.
Protein extracts were collected in the same manner as in [Example 10-1 B. Human gastric undifferentiated carcinoma cells (KKLS)], [Example 10-1 C. Mouse microglial cells (BV2)], [Example 10-1 D. Human gingival fibroblasts (Gin-1)], and [Example 10-1 E. Human umbilical vein endothelial cells (HUVEC)], respectively, except that a medium same as the above-mentioned medium but not containing the test sample was used instead of the medium containing the test sample, and protein in each protein extract was quantified by the Bradford assay.
An ELISA method was performed using an antibody against GLS1 to measure the amount of GLS1 in the samples. […]

C[C@@H]1O[C@@H](O[C@H]2[C@H](O[C@H]3[C@H](O)[C@@H](O)C(O)O[C@@H]3CO)O[C@H](CO)[C@H](O)[C@@H]2O)[C@@H](O)[C@H](O)[C@@H]1O (some centres unmarked) [2'-FL, 2'-fucosyllactose]
proliferation activity of normal epidermal cells (cell proliferation rate) [1]: improved the proliferation activity of normal epidermal cells | proliferation activity of normal fibroblasts (cell proliferation rate) [2]: improved the proliferation activity of normal fibroblasts | proliferation of senescent fibroblasts (cell proliferation rate) [3]: suppressed the proliferation of senescent fibroblasts | endoplasmic reticulum stress (cell viability) [4]: ameliorated endoplasmic reticulum stress | GLS1 expression [5]: suppressed GLS1 expression
